Legend:
[1] = Pharmacokinetics of nalbuphine in beagles after oral administration of SDN compositions; conditions: 30 mg/kg of SDN; for AUC/Dose: nalbuphine in plasma, 30 mg/kg
Protocol: To assess the effects of various pharmaceutical compositions of the present invention on beagles. The compositions were orally administered into beagles, and the concentration of nalbuphine in vivo was monitored in the animals as follows:
2, In each study group, the pharmaceutical composition that contained 30 mg/kg of SDN were orally given to beagles.
4. The blood samples were analyzed by high performance liquid chromatography (HPLC) to determine the pharmacokinetics (including the half-life and bioavailability of nalbuphine) in vivo.

[2] = Efficacy and bioavailability study of nalbuphine ester prodrugs as orally administered compositions; format: in vivo, animals and humans; conditions: oral composition with oily substance, effect of adding the solubility-assisting agent; comparison among active ingredients
From the text: Each and every one of these nalbuphine and/or nalbuphine ester prodrugs as listed above has been tested for suitability as an orally administered pharmaceutical composition for use in animals and humans. The efficacy and bioavailability of these nalbuphine ester prodrugs have been studied.

[3] = literature; cited from earlier work

Compound: O=C(CCCCCCCCC(=O)Oc1ccc2c3c1O[C@H]1[C@@H](O)CC[C@@]4(O)[C@@H](C2)N(CC2CCC2)CC[C@]314)Oc1ccc2c3c1O[C@H]1[C@@H](O)CC[C@@]4(O)[C@@H](C2)N(CC2CCC2)CC[C@]314 [SDN Powder, sebacoyl dinalbuphine ester]
- concentration of nalbuphine in plasma 1-3 hours after the oral uptake of SDN ([1]; FIG. 1, comparison among groups): much less than the other two groups
- concentration of nalbuphine in plasma after the peak ([1]; FIG. 1, later time points): decreased substantially
- Bioavailability ([1]; bioavailability of nalbuphine, means ± S.E.): 14.6%
- Nalbuphine Half-Life ([1]; nalbuphine in plasma by HPLC, means ± S.E.): 8.1 ± 1.6 h
- AUC/Dose ([1]; means ± S.E.): 39 ± 11 ng·kg·h/mL/mg
- AUC/Dose ([1]; means ± S.E., listed as SDN Powder Group): 39 ng·kg·h/mL/mg
- bioavailability and half-life of nalbuphine in blood [2]: the best in terms of longer half-life and greater bioavailability rate

Compound: nalbuphine hydrochloride [nalbuphine-HCl]
- bioavailability through oral administration [3]: less than 5%

— US6703398B2, “Orally administered analgesic compositions containing nalbuphine” (priority 2001, dated 2004)
